Measurements from patent US20090111778A1, “2-Keto-Oxazoles as Modulators of Fatty Acid Amide Hydrolase” (priority 2005, published 2009).

Legend:
rat FAAH = molecular target: T1, rat FAAH (Rattus norvegicus, UniProt P97612); assay: Assay Method 2: FAAH assay, hydrolysis of 3H-anandamide by homogenate of SK-N-MC cells transfected with rat FAAH; format: biochemical; conditions: T84 or transfected SK-N-MC cell homogenate, 3H-AEA tracer 80 nM, rt 1 h, pH 9
T1 construct: expressed in transfected cells
T1 sequence (P97612 1-579): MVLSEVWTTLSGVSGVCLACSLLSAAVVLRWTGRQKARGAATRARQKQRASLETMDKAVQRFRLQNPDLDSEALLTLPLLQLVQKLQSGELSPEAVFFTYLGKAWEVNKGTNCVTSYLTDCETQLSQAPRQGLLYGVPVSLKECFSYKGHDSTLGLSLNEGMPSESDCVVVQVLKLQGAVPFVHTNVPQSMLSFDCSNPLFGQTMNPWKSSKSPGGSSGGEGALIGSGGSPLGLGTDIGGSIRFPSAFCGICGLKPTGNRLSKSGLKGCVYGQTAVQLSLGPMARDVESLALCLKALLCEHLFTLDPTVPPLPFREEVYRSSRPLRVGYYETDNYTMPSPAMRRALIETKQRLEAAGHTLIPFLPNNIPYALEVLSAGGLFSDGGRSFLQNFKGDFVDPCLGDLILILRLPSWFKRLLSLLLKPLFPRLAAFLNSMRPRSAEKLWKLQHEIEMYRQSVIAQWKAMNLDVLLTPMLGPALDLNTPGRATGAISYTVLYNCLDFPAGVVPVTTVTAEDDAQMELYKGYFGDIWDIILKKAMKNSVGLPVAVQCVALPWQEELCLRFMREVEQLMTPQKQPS
Summary of the method: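 Rat FAAH activity from homogenate of G418-selected, electroporated SK-N-MC clones was measured as release of radiolabelled ethanolamine from 3H-anandamide. After 1 h at rt, charcoal filtration retained substrate, and scintillation counting of the flow-through gave the read-out.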

human FAAH = molecular target: T2, human FAAH (Homo sapiens, UniProt O00519); assay: Assay Method 1: FAAH assay, hydrolysis of 3H-anandamide by homogenate of SK-N-MC cells transfected with human FAAH; format: biochemical; conditions: human FAAH; T84 or transfected SK-N-MC cell homogenate; 3H-AEA tracer 80 nM; rt 1 h; pH 9; read-out: Assay 1 IC50
T2 construct: expressed in transfected cells
T2 sequence (O00519 1-579): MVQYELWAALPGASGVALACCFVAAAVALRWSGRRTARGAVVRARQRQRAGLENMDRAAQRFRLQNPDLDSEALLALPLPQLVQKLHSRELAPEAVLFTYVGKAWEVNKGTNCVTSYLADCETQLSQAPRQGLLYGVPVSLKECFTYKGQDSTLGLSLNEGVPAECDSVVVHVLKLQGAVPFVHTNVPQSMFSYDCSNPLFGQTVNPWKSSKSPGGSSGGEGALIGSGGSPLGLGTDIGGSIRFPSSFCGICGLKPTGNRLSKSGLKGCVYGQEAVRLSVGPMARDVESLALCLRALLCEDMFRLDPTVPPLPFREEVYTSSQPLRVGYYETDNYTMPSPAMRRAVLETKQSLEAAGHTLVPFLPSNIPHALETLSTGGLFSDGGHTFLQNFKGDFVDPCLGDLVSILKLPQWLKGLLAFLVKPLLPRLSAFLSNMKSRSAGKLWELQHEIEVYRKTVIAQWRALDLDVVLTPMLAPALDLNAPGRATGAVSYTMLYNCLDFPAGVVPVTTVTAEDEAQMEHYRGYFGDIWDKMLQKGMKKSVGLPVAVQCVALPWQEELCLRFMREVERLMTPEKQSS
Summary of the method: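 Homogenate of SK-N-MC cells stably expressing human FAAH (G418-selected clones) incubated with compound and 80 nM [1-3H-ethanolamine]anandamide for 1 h at rt. Released 3H-ethanolamine separated from substrate by activated-charcoal filtration, then counted by scintillation.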

Q: What does the source list for `O=C(CCCC1CCN(Cc2ccc3ccccc3n2)CC1)c1ncco1` [Example 92, 1-Oxazol-2-yl-4-(1-quinolin-2-ylmethyl-piperidin-4-yl)-butan-1-one]?
A: IC50 (rat FAAH): 290 nM; IC50 (human FAAH): 60 nM

Q: What does the source list for `O=C(CCCC1CCN(Cc2ccnc3ccccc23)CC1)c1ncco1` [Example 93, 1-Oxazol-2-yl-4-(1-quinolin-4-ylmethyl-piperidin-4-yl)-butan-1-one]?
A: IC50 (rat FAAH): 923 nM; IC50 (human FAAH): 70 nM

Q: How did the IC50 (rat FAAH) turn out when `Cc1cccc(CN2CCC(CCCC(=O)c3ncco3)CC2)c1C` [Example 94, 4-[1-(2,3-Dimethyl-benzyl)-piperidin-4-yl]-1-oxazol-2-yl-butan-1-one] was run?
A: 2100 nM

Q: What about the IC50 (human FAAH) of the same molecule?
A: 400 nM

Q: `Cc1ccc(Oc2ccc(CN3CCC(CCCC(=O)c4ncco4)CC3)cn2)cc1` [Example 96, 1-Oxazol-2-yl-4-[1-(6-p-tolyloxy-pyridin-3-ylmethyl)-piperidin-4-yl]-butan-1-one] was tested. Which IC50 (rat FAAH) did it give?
A: 132 nM

Q: And the IC50 (human FAAH)?
A: 125 nM

Q: For `O=C(CCCC1CCN(Cc2cc3ccccc3nc2Cl)CC1)c1ncco1` [Example 97, 4-[1-(2-Chloro-quinolin-3-ylmethyl)-piperidin-4-yl]-1-oxazol-2-yl-butan-1-one], which IC50 (rat FAAH) is on record?
A: 23 nM

Q: And the IC50 (human FAAH)?
A: 12 nM

Q: For `Cc1ccc2nc(Cl)c(CN3CCC(CCCC(=O)c4ncco4)CC3)cc2c1` [Example 98, 4-[1-(2-Chloro-6-methyl-quinolin-3-ylmethyl)-piperidin-4-yl]-1-oxazol-2-yl-butan-1-one], which IC50 (rat FAAH) is on record?
A: 7 nM

Q: And the IC50 (human FAAH)?
A: 0.4 nM

Q: For `Cc1cccc2cc(CN3CCC(CCCC(=O)c4ncco4)CC3)c(Cl)nc12` [Example 99, 4-[1-(2-Chloro-8-methyl-quinolin-3-ylmethyl)-piperidin-4-yl]-1-oxazol-2-yl-butan-1-one], which IC50 (rat FAAH) is on record?
A: 8 nM

Q: And the IC50 (human FAAH)?
A: 5 nM

Q: For `COc1ccc2nc(Cl)c(CN3CCC(CCCC(=O)c4ncco4)CC3)cc2c1` [Example 100, 4-[1-(2-Chloro-6-methoxy-quinolin-3-ylmethyl)-piperidin-4-yl]-1-oxazol-2-yl-butan-1-one], which IC50 (rat FAAH) is on record?
A: 11 nM

Q: What about the IC50 (human FAAH) of the same molecule?
A: 30 nM

Q: Which IC50 (rat FAAH) does the source give for `O=C(CCCC1CCN(Cc2ccc(C3CCCCC3)cc2)CC1)c1ncco1` [Example 101, 4-[1-(4-Cyclohexyl-benzyl)-piperidin-4-yl]-1-oxazol-2-yl-butan-1-one] here?
A: 44 nM

Q: And the IC50 (human FAAH)?
A: 23 nM

Q: For `O=C(CCCC1CCN(Cc2ccc(N3CCCC3)cc2)CC1)c1ncco1` [Example 102, 1-oxazol-2-yl-4-[1-(4-pyrrolidin-1-yl-benzyl)-piperidin-4-yl]-butan-1-one], which IC50 (rat FAAH) is on record?
A: 3000 nM

Q: And the IC50 (human FAAH)?
A: 530 nM

Q: How did the IC50 (rat FAAH) turn out when `O=C(CCCC1CCN(Cc2ccc(N3CCCCC3)cc2)CC1)c1ncco1` [Example 103, 1-Oxazol-2-yl-4-[1-(4-piperidin-1-yl-benzyl)-piperidin-4-yl]-butan-1-one] was run?
A: 250 nM

Q: And the IC50 (human FAAH)?
A: 108 nM

Q: Which results are given for `COc1cccc(-c2ccc(CN3CCC(CCCC(=O)c4ncco4)CC3)cn2)c1` [Example 104, 4-{1-[6-(3-Methoxy-phenyl)-pyridin-3-ylmethyl]-piperidin-4-yl}-1-oxazol-2-yl-butan-1-one]?
A: IC50 (rat FAAH): 48 nM; IC50 (human FAAH): 4 nM

Q: What does the source list for `O=C(CCCC1CCN(Cc2ccc(Oc3ccccc3)nc2)CC1)c1ncco1` [Example 105, 1-Oxazol-2-yl-4-[1-(6-phenoxy-pyridin-3-ylmethyl)-piperidin-4-yl]-butan-1-one]?
A: IC50 (rat FAAH): 57 nM; IC50 (human FAAH): 53 nM

Q: How did the IC50 (rat FAAH) turn out when `O=C(CCCC1CCN(Cc2ccc(N3CCOCC3)nc2)CC1)c1ncco1` [Example 107, 4-[1-(6-Morpholin-4-yl-pyridin-3-ylmethyl)-piperidin-4-yl]-1-oxazol-2-yl-butan-1-one] was run?
A: 2000 nM

Q: What about the IC50 (human FAAH) of the same molecule?
A: 180 nM

Q: Which results are given for `O=C(CCCC1CCN(Cc2ccc(N3CCCCC3)nc2)CC1)c1ncco1` [Example 108, 1-oxazol-2-yl-4-[1-(3,4,5,6-tetrahydro-2H-[1,2′]bipyridinyl-5′-ylmethyl)-piperidin-4-yl]-butan-1-one]?
A: IC50 (rat FAAH): 235 nM; IC50 (human FAAH): 23 nM

Q: For `O=C(CCCC1CCN(Cc2ccc(-c3ccco3)nc2)CC1)c1ncco1` [Example 109, 4-[1-(6-Furan-2-yl-pyridin-3-ylmethyl)-piperidin-4-yl]-1-oxazol-2-yl-butan-1-one], which IC50 (rat FAAH) is on record?
A: 528 nM

Q: And the IC50 (human FAAH)?
A: 55 nM

Q: With `O=C(CCCC1CCN(Cc2ccc(-c3cccs3)nc2)CC1)c1ncco1` [Example 110, 1-Oxazol-2-yl-4-[1-(6-thiophen-2-yl-pyridin-3-ylmethyl)-piperidin-4-yl]-butan-1-one] as the molecule, how does the IC50 (rat FAAH) read?
A: 141 nM

Q: And the IC50 (human FAAH)?
A: 9 nM

Q: How did the IC50 (rat FAAH) turn out when `O=C(CCCC1CCN(Cc2ccc(-c3ccsc3)nc2)CC1)c1ncco1` [Example 111, 1-Oxazol-2-yl-4-[1-(6-thiophen-3-yl-pyridin-3-ylmethyl)-piperidin-4-yl]-butan-1-one] was run?
A: 193 nM

Q: What about the IC50 (human FAAH) of the same molecule?
A: 15 nM

Q: How did the IC50 (rat FAAH) turn out when `N#Cc1cccc(-c2ccc(CN3CCC(CCCC(=O)c4ncco4)CC3)cn2)c1` [Example 112, 3-{5-[4-(4-Oxazol-2-yl-4-oxo-butyl)-piperidin-1-ylmethyl]-pyridin-2-yl}-benzonitrile] was run?
A: 174 nM

Q: And the IC50 (human FAAH)?
A: 14 nM

Q: With `O=C(CCCC1CCN(Cc2cc(F)ccc2F)CC1)c1ncco1` [Example 113, 4-[1-(2,5-Difluoro-benzyl)-piperidin-4-yl]-1-oxazol-2-yl-butan-1-one] as the molecule, how does the IC50 (rat FAAH) read?
A: 318 nM

Q: What about the IC50 (human FAAH) of the same molecule?
A: 28 nM

Q: For `O=C(CCCC1CCN(Cc2ccc(F)cc2F)CC1)c1ncco1` [Example 114, 4-[1-(2,4-Difluoro-benzyl)-piperidin-4-yl]-1-oxazol-2-yl-butan-1-one], which IC50 (rat FAAH) is on record?
A: 325 nM

Q: What about the IC50 (human FAAH) of the same molecule?
A: 110 nM

Q: `O=C(CCCC1CCN(Cc2ccc(F)c(F)c2)CC1)c1ncco1` [Example 115, 4-[1-(3,4-Difluoro-benzyl)-piperidin-4-yl]-1-oxazol-2-yl-butan-1-one] was tested. Which IC50 (rat FAAH) did it give?
A: 750 nM

Q: And the IC50 (human FAAH)?
A: 78 nM

Q: How did the IC50 (rat FAAH) turn out when `O=C(CCCC1CCN(Cc2ccc3cccnc3n2)CC1)c1ncco1` [Example 116, 4-(1-[1,8]Naphthyridin-2-ylmethyl-piperidin-4-yl)-1-oxazol-2-yl-butan-1-one] was run?
A: 7000 nM

Q: What about the IC50 (human FAAH) of the same molecule?
A: 370 nM

Q: Which IC50 (rat FAAH) does the source give for `O=C(CCCC1CCN(Cc2cnc3ccccc3n2)CC1)c1ncco1` [Example 117, 1-Oxazol-2-yl-4-(1-quinoxalin-2-ylmethyl-piperidin-4-yl)-butan-1-one] here?
A: 277 nM

Q: What about the IC50 (human FAAH) of the same molecule?
A: 175 nM

Q: For `O=C(CCCC1CCN(Cc2ccco2)CC1)c1ncco1` [Example 118, 4-(1-Furan-2-ylmethyl-piperidin-4-yl)-1-oxazol-2-yl-butan-1-one], which IC50 (rat FAAH) is on record?
A: 935 nM

Q: And the IC50 (human FAAH)?
A: 354 nM

Q: Which results are given for `CC(C)(C)OC(=O)N1CCC(CCCC(=O)c2ncc(-c3ccccn3)o2)CC1` [Example 119, 4-[4-Oxo-4-(5-pyridin-2-yl-oxazol-2-yl)-butyl]-piperidine-1-carboxylic acid tert-butyl ester]?
A: IC50 (rat FAAH): 3 nM; IC50 (human FAAH): 0.8 nM

Q: `CC(C)(C)OC(=O)N1CCC(CCCC(=O)c2ncc(-c3ccco3)o2)CC1` [Example 120, 4-[4-(5-Furan-2-yl-oxazol-2-yl)-4-oxo-butyl]-Piperidine-1-carboxylic acid tert-butyl ester] was tested. Which IC50 (rat FAAH) did it give?
A: 21 nM

Q: What about the IC50 (human FAAH) of the same molecule?
A: 2 nM

Q: Which IC50 (rat FAAH) does the source give for `O=C(CCCC1CCN(Cc2ccccc2)CC1)c1ncc(-c2ccco2)o1` [Example 121, 4-(1-Benzyl-piperidin-4-yl)-1-(5-furan-2-yl-oxazol-2-yl)-butan-1-one] here?
A: 323 nM

Q: And the IC50 (human FAAH)?
A: 258 nM

Q: With `O=C(CCCC1CCN(Cc2c(F)cc(F)cc2F)CC1)c1ncco1` [Example 123, 1-Oxazol-2-yl-4-[1-(2,4,6-trifluoro-benzyl)-piperidin-4-yl]-butan-1-one] as the molecule, how does the IC50 (rat FAAH) read?
A: 280 nM

Q: And the IC50 (human FAAH)?
A: 200 nM

Q: Which IC50 (rat FAAH) does the source give for `O=C(CCCC1CCN(Cc2cc(F)cc(F)c2F)CC1)c1ncco1` [Example 124, 1-Oxazol-2-yl-4-[1-(2,3,5-trifluoro-benzyl)-piperidin-4-yl]-butan-1-one] here?
A: 450 nM

Q: What about the IC50 (human FAAH) of the same molecule?
A: 30 nM

Q: `O=C(CCCC1CCN(Cc2ccc3c(c2)OC(F)(F)O3)CC1)c1ncco1` [Example 125, 4-[1-(2,2-Difluoro-benzo[1,3]dioxol-5-ylmethyl)-piperidin-4-yl]-1-oxazol-2-yl-butan-1-one] was tested. Which IC50 (rat FAAH) did it give?
A: 81 nM

Q: What about the IC50 (human FAAH) of the same molecule?
A: 4 nM
